Reference: patent US10597388B2, “Pyridazinone herbicides” (FMC CORPORATION, priority 2014, dated 2020)

Legend:
Experiment in all cases: Test C greenhouse herbicide test, pre- and postemergence
Type in all cases: in vivo
[1] = tested on: blackgrass (Alopecurus myosuroides)
Summary of the method: (§1)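 Greenhouse pots; pre-em on seeded loam:sand blend, post-em on 2–18 cm plants (1–4 leaf) in sphagnum peat/vermiculite medium. Formulation: non-phytotoxic solvent + surfactant. Read-out: visual % control (0–100) vs controls at 13–15 d.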

[2] = tested on: ragweed (common ragweed, Ambrosia elatior)
Summary of the method: as §1

[3] = tested on: lambsquarters (Chenopodium album)
Summary of the method: as §1

[4] = tested on: crabgrass, large (large crabgrass, Digitaria sanguinalis)
Summary of the method: as §1

[5] = tested on: barnyardgrass (Echinochloa crus-galli)
Summary of the method: as §1

[6] = tested on: morningglory (Ipomoea coccinea)
Summary of the method: as §1

[7] = tested on: foxtail, giant (giant foxtail, Setaria faberii)
Summary of the method: as §1

[8] = tested on: velvetleaf (Abutilon theophrasti)
Summary of the method: as §1

corn (Zea mays) = tested on: corn (Zea mays)
Summary of the method: as §1

[9] = tested on: waterhemp (common waterhemp, Amaranthus rudis)
Summary of the method: as §1

soybean (Glycine max) = tested on: soybean (Glycine max)
Summary of the method: as §1

[10] = tested on: nutsedge, yellow (yellow nutsedge, Cyperus esculentus)
Summary of the method: as §1

[11] = tested on: ryegrass, Italian (Italian ryegrass, Lolium multiflorum)
Summary of the method: as §1

[12] = tested on: galium (catchweed bedstraw, Galium aparine)
Summary of the method: as §1

[13] = tested on: oilseed rape (Brassica napus)
Summary of the method: as §1

[14] = Postemergence, 31 g ai/ha, 0 to 100 scale (0 no effect, 100 complete control)
[15] = Postemergence, 125 g ai/ha, scale 0 to 100, 0 is no effect, 100 is complete control
[16] = Postemergence, 250 g ai/ha, scale 0 to 100, 0 no effect, 100 complete control, 13 to 15 d
[17] = Preemergence, 31 g ai/ha, scale 0 to 100, 0 is no effect, 100 is complete control
[18] = Preemergence, 62 g ai/ha, scale 0 to 100, 0 is no effect, 100 is complete control
[19] = Preemergence, 125 g ai/ha, scale 0 to 100, 0 is no effect, 100 is complete control
[20] = Preemergence, 250 g ai/ha, scale 0 to 100, 0 no effect, 100 complete control
[21] = postemergence, 62 g ai/ha, scale 0 to 100, 0 no effect, 100 complete control

Cc1ccc2sc(Br)c(-c3c(O)c(C)nn(C)c3=O)c2c1 [Compound 79]
Blackgrass plant response rating [1, 14]: 5
Plant response rating, Blackgrass [1, 15]: 35
Plant response rating, Blackgrass [1, 16]: 50
Plant response rating, Blackgrass [1, 17]: 20
Plant response rating, Blackgrass [1, 18]: 50
Plant response rating, Blackgrass [1, 19]: 60
Blackgrass plant response rating [1, 20]: 85
Blackgrass plant response rating [1, 21]: 10
Ragweed plant response rating [2, 14]: 90
Plant response rating, Ragweed [2, 15]: 98
Plant response rating, Ragweed [2, 16]: 98
Plant response rating, Ragweed [2, 17]: 90
Plant response rating, Ragweed [2, 18]: 95
Plant response rating, Ragweed [2, 19]: 98
Ragweed plant response rating [2, 20]: 100
Ragweed plant response rating [2, 21]: 95
Lambsquarters plant response rating [3, 14]: 85
Plant response rating, Lambsquarters [3, 15]: 98
Plant response rating, Lambsquarters [3, 16]: 100
Plant response rating, Lambsquarters [3, 17]: 100
Plant response rating, Lambsquarters [3, 18]: 95
Plant response rating, Lambsquarters [3, 19]: 100
Lambsquarters plant response rating [3, 20]: 100
Lambsquarters plant response rating [3, 21]: 95
Crabgrass, Large plant response rating [4, 14]: 20
Plant response rating, Crabgrass, Large [4, 15]: 30
Plant response rating, Crabgrass, Large [4, 16]: 35
Plant response rating, Crabgrass, Large [4, 17]: 25
Plant response rating, Crabgrass, Large [4, 18]: 25
Plant response rating, Crabgrass, Large [4, 19]: 20
Crabgrass, Large plant response rating [4, 20]: 30
Crabgrass, Large plant response rating [4, 21]: 25
Barnyardgrass plant response rating [5, 14]: 20
Plant response rating, Barnyardgrass [5, 15]: 30
Plant response rating, Barnyardgrass [5, 16]: 40
Plant response rating, Barnyardgrass [5, 17]: 10
Plant response rating, Barnyardgrass [5, 18]: 15
Plant response rating, Barnyardgrass [5, 19]: 65
Barnyardgrass plant response rating [5, 20]: 85
Barnyardgrass plant response rating [5, 21]: 25
Morningglory plant response rating [6, 14]: 100
Plant response rating, Morningglory [6, 15]: 100
Plant response rating, Morningglory [6, 16]: 98
Plant response rating, Morningglory [6, 17]: 90
Plant response rating, Morningglory [6, 18]: 95
Plant response rating, Morningglory [6, 19]: 98
Morningglory plant response rating [6, 20]: 98
Morningglory plant response rating [6, 21]: 100
Foxtail, Giant plant response rating [7, 14]: 35
Plant response rating, Foxtail, Giant [7, 15]: 75
Plant response rating, Foxtail, Giant [7, 16]: 90
Plant response rating, Foxtail, Giant [7, 17]: 65
Plant response rating, Foxtail, Giant [7, 18]: 85
Plant response rating, Foxtail, Giant [7, 19]: 85
Foxtail, Giant plant response rating [7, 20]: 95
Foxtail, Giant plant response rating [7, 21]: 60
Velvetleaf plant response rating [8, 14]: 75
Plant response rating, Velvetleaf [8, 15]: 90
Plant response rating, Velvetleaf [8, 16]: 90
Plant response rating, Velvetleaf [8, 17]: 80
Plant response rating, Velvetleaf [8, 18]: 85
Plant response rating, Velvetleaf [8, 19]: 95
Velvetleaf plant response rating [8, 20]: 95
Velvetleaf plant response rating [8, 21]: 85
Corn plant response rating (corn (Zea mays); [14]): 0
Plant response rating, Corn (corn (Zea mays); [15]): 25
Plant response rating, Corn (corn (Zea mays); [16]): 35
Plant response rating, Corn (corn (Zea mays); [17]): 0
Plant response rating, Corn (corn (Zea mays); [18]): 0
Plant response rating, Corn (corn (Zea mays); [19]): 5
Corn plant response rating (corn (Zea mays); [20]): 5
Corn plant response rating (corn (Zea mays); [21]): 0
Waterhemp plant response rating [9, 14]: 85
Plant response rating, Waterhemp [9, 15]: 80
Plant response rating, Waterhemp [9, 16]: 95
Plant response rating, Waterhemp [9, 17]: 100
Plant response rating, Waterhemp [9, 18]: 100
Plant response rating, Waterhemp [9, 19]: 100
Waterhemp plant response rating [9, 20]: 100
Waterhemp plant response rating [9, 21]: 90
Soybean plant response rating (soybean (Glycine max); [14]): 0
Plant response rating, Soybean (soybean (Glycine max); [15]): 5
Plant response rating, Soybean (soybean (Glycine max); [16]): 5
Plant response rating, Soybean (soybean (Glycine max); [17]): 0
Plant response rating, Soybean (soybean (Glycine max); [18]): 0
Plant response rating, Soybean (soybean (Glycine max); [19]): 5
Soybean plant response rating (soybean (Glycine max); [20]): 0
Soybean plant response rating (soybean (Glycine max); [21]): 0
Nutsedge, Yellow plant response rating [10, 14]: 85
Plant response rating, Nutsedge, Yellow [10, 15]: 80
Plant response rating, Nutsedge, Yellow [10, 16]: 85
Plant response rating, Nutsedge, Yellow [10, 17]: 25
Plant response rating, Nutsedge, Yellow [10, 18]: 45
Plant response rating, Nutsedge, Yellow [10, 19]: 90
Nutsedge, Yellow plant response rating [10, 20]: 90
Nutsedge, Yellow plant response rating [10, 21]: 80
Ryegrass, Italian plant response rating [11, 14]: 50
Plant response rating, Ryegrass, Italian [11, 15]: 85
Plant response rating, Ryegrass, Italian [11, 16]: 85
Plant response rating, Ryegrass, Italian [11, 17]: 20
Plant response rating, Ryegrass, Italian [11, 18]: 90
Plant response rating, Ryegrass, Italian [11, 19]: 90
Ryegrass, Italian plant response rating [11, 20]: 90
Ryegrass, Italian plant response rating [11, 21]: 60
Galium plant response rating [12, 14]: 95
Plant response rating, Galium [12, 15]: 95
Plant response rating, Galium [12, 16]: 95
Plant response rating, Galium [12, 17]: 95
Plant response rating, Galium [12, 18]: 95
Plant response rating, Galium [12, 19]: 95
Galium plant response rating [12, 20]: 98
Galium plant response rating [12, 21]: 95
Oilseed Rape plant response rating [13, 14]: 20
Plant response rating, Oilseed Rape [13, 15]: 70
Plant response rating, Oilseed Rape [13, 16]: 80
Plant response rating, Oilseed Rape [13, 17]: 0
Plant response rating, Oilseed Rape [13, 18]: 35
Plant response rating, Oilseed Rape [13, 19]: 30
Oilseed Rape plant response rating [13, 20]: 30
Oilseed Rape plant response rating [13, 21]: 25
